Test results: patent US6831087B2, “Pyridine substituted isoquinoline derivatives” (Hoffmann-La Roche Inc., priority 2001, dated 2004)
Counter-ions that a name gives are not always drawn.

biological target: T1, NMDA-receptor subtype 2B (Rattus norvegicus, UniProt P35439+Q00960); test: 3H-Ro 25-6981 binding (displacement) on rat brain membranes; conditions: displacement of 5 nM 3H-Ro 25-6981, rat whole brain minus cerebellum and medulla oblongata membranes, 2 hours at 4° C., pH 7.4
T1 construct: Membranes were prepared by homogenization of the whole brain minus cerebellum and medulla oblongata; from tissue; host or cells: rat whole brain minus cerebellum and medulla oblongata (membranes)
Description: ^3H-Ro 25-6981 binding (Ro 25-6981 is [R-(R*,S*)]-α-(4-hydroxy-phenyl)-β-methyl-4-(phenyl-methyl)-1-piperidine propanol)
Male Füllinsdorf albino rats weighing between 150-200 g were used. Membranes were prepared by homogenization of the whole brain minus cerebellum and medulla oblongata with a Polytron (10.000 rpm, 30 seconds), in 25 volumes of a cold Tris-HCl 50 mM, EDTA 10 mM, pH 7.1 buffer. The homogenate was centrifuged at 48,000 g for 10 minutes at 4° C. The pellet was resuspended using the Polytron in the same volume of buffer and the homogenate was incubated at 37° C. for 10 minutes. After centrifugation the pellet was homogenized in the same buffer and frozen at −80° C. for at least 16 hours but not more than 10 days. For the binding assay the homogenate was thawed at 37° C., centrifuged and the pellet was washed three times as above in a Tris-HCl 5 mM, pH 7.4 cold buffer. The final pellet was resuspended in the same buffer and used at a final concentration of […].
^3H-Ro 25-6981 binding experiments were performed using a Tris-HCl 50 mM, pH 7.4 buffer. For displacement experiments 5 nM of ^3H-Ro 25-6981 were used and non specific binding was measured using 10 mM of tetrahydroisoquinoline and usually it accounts for 10% of the total. The incubation time was 2 hours at 4° C. and the assay was stopped by filtration on Whatmann GF/B glass fiber filters (Unifilter-96, Packard, Zurich, Switzerland). The filters were washed 5 times with cold buffer. The radioactivity on the filter was counted on a Packard Top-count microplate scintillation counter after addition of […] of microscint 40 (Canberra Packard S. A., Züirich, Switzerland).
The above procedure was performed to determine data for calculation of an IC50 value. The IC50 value is a concentration expressed in micromoles (μM) for a test compound at which 50% of the ligand (in this determination, ^3H-Ro 25-6981) bonded to the receptor is displaced. The binding ability of the compounds of the invention was measured in vitro using a minimum of 10 concentrations and repeated at least once. The specific binding at each concentration was then calculated as the % of the maximum specific binding (100%) obtained in the same experiment, in the absence of a test compound. Competitive displacement of ^3H-Ro 25-6981 was observed, with complete displacement of the radioligand from specific binding sites (usually about 0% of specific binding at the highest concentrations tested). An IC50 value was then calculated with all the ten datapoints (% of specific bound) by plotting the data on a semilogarithmic scale with a sigmoidal fit (Log of the molar concentration on X-axis vs. % of specific bound on the Y-axis) using Microsoft Excel fit software or Microcal Origin software. The pooled normalized values were analyzed using a non-linear regression calculation program which provide IC50 with their relative upper and lower 95% confidence limits.

T1 sequence (Q00960 27-1482, other chains not shown): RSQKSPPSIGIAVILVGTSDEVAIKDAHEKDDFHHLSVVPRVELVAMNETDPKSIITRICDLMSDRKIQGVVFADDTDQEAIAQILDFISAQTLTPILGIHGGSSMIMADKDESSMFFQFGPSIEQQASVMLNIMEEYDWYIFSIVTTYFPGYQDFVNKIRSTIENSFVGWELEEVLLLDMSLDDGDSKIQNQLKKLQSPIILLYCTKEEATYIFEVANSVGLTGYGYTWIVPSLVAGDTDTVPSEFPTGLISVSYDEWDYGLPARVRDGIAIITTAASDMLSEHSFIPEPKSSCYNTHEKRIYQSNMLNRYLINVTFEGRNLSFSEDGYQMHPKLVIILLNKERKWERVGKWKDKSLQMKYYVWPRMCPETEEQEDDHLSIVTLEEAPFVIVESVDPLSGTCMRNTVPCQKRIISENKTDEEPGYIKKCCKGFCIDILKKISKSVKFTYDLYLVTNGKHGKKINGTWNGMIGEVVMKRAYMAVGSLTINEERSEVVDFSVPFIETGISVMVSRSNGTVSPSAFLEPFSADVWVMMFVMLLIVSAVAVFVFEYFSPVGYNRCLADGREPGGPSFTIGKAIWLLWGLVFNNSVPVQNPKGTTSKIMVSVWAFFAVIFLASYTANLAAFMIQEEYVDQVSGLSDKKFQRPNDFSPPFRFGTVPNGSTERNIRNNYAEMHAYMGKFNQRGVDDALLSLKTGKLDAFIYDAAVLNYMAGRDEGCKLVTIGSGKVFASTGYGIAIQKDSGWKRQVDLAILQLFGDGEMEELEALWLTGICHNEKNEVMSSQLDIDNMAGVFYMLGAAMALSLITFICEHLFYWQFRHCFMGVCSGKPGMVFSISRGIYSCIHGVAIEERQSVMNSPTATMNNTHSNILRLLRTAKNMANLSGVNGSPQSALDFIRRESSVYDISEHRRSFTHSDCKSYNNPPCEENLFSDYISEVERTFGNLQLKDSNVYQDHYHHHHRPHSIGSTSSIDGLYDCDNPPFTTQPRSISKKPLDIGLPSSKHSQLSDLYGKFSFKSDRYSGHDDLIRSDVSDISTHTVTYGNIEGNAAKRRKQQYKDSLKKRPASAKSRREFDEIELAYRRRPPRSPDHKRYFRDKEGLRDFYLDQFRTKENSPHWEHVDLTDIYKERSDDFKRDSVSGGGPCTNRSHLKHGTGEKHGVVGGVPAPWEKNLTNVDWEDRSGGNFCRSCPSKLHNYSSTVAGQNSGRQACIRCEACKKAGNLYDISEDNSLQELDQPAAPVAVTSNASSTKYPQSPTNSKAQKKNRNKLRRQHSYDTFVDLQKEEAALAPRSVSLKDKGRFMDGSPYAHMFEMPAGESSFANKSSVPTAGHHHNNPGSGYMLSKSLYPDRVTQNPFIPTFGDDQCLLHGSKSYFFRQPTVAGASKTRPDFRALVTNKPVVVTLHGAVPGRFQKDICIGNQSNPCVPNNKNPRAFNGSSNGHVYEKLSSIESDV

Point of comparison: `CCOC(=O)C(=O)Nc1cc(N2CCc3ccccc3C2)cc(C)n1` [Example 33, N-[4-(3,4-Dihydro-1H-isoquinolin-2-yl)-6-methyl-pyridin-2-yl]-oxalamic acid ethyl ester], IC50 0.02 µM. Against it:
- Nc1ccnc(N2CCc3ccccc3C2)c1 [Example 1, 2-(3,4-Dihydro-1H-isoquinolin-2-yl)-pyridin-4-yl-amine] — 2.5-fold lower, 0.008 µM
- Cc1cc(N2CCc3ccccc3C2)cc(NCCO)n1 [Example 35, 2-[4-(3,4-Dihydro-1H-isoquinolin-2-yl)-6-methyl-pyridin-2-yl-amino]-ethanol] — 5-fold lower, 0.004 µM
- Cc1cnc(N2CCc3ccccc3C2)cc1N [Example 3, 2-(3,4-Dihydro-1H-isoquinolin-2-yl)-5-methyl-pyridin-4-yl-amine] — 1.8-fold lower, 0.011 µM
- Cc1cc(N2CCc3ccccc3C2)ccn1 [Example 31, 2-(2-Methyl-pyridin-4-yl)-1,2,3,4-tetrahydro-isoquinoline] — the same, 0.02 µM
- Nc1cc(CO)nc(N2CCc3ccccc3C2)c1 [Example 6, [4-Amino-6-(3,4-dihydro-1H-isoquinolin-2-yl)-pyridin-2-yl]-methanol] — 1.8-fold lower, 0.011 µM
- Cc1cc(N2CCc3ccccc3C2)cc(N)n1 [Example 32, 4-(3,4-Dihydro-1H-isoquinolin-2-yl)-6-methyl-pyridin-2-yl-amine] — 1.8-fold lower, 0.011 µM
- Nc1cc(N2CCc3ccccc3C2)ccn1 [Example 30, 4-(3,4-Dihydro-1H-isoquinolin-2-yl)-pyridin-2-yl-amine] — 5-fold lower, 0.004 µM
- CCc1cc(N)cc(N2CCc3ccccc3C2)n1 [Example 5, 2-(3,4-Dihydro-1H-isoquinolin-2-yl)-6-ethyl-pyridin-4-yl-amine] — 3.8-fold lower, 0.0053 µM
- Cc1cc(NCCO)cc(N2CCc3ccccc3C2)n1 [Example 10, 2-[2-(3,4-Dihydro-1H-isoquinolin-2-yl)-6-methyl-pyridin-4-yl-amino]-ethanol] — 1.8-fold lower, 0.011 µM
- Cc1cc(N)cc(N2CCc3ccccc3C2)n1 [Example 4, 2-(3,4-Dihydro-1H-isoquinolin-2-yl)-6-methyl-pyridin-4-yl-amine] — within 1.5-fold, 0.014 µM
- OCCNc1ccnc(N2CCc3ccccc3C2)c1 [Example 9, 2-[2-(3,4-Dihydro-1H-isoquinolin-2-yl)-pyridin-4-yl-amino]-ethanol] — 3.3-fold lower, 0.006 µM

system: not given; test: not given; conditions: not given

Point of comparison: `Cc1cc(N2CCc3ccccc3C2)cc(NCCO)n1` (as salt: fumarate) [Example 35, 2-[4-(3,4-Dihydro-1H-isoquinolin-2-yl)-6-methyl-pyridin-2-yl-amino]-ethanol], melting point 160 °C. Against it:
- CC1CN(c2ccncc2)Cc2ccccc21 (racemic) (as salt: hydrochloride) [Example 29, rac.-4-Methyl-2-pyridin-4-yl-1,2,3,4-tetrahydro-isoquinoline] — higher, 224 to 227 °C
- Clc1cccc2c1CN(c1ccncc1)CC2 (as salt: fumarate) [Example 26, 8-Chloro-2-pyridin-4-yl-1,2,3,4-tetrahydro-isoquinoline] — higher, 178 to 179 °C
- CC1CN(c2cc(N)ccn2)Cc2ccccc21 (racemic) (as salt: fumarate) [Example 2, Rac.-2-(4-Methyl-3,4-dihydro-1H-isoquinolin-2-yl)-pyridin-4-yl-amine] — higher, 178 to 179 °C
- CCNc1ccnc(N2CCc3ccccc3C2)c1 (as salt: fumarate) [Example 16, [2-(3,4-Dihydro-1H-isoquinolin-2-yl)-pyridin-4-yl]-ethyl-amine] — lower, 73 to 74 °C
- CN1COCc2c1ccnc2N1CCc2ccccc2C1 (as salt: hydrochloride) [Example 14, 5-(3,4-Dihydro-1H-isoquinolin-2-yl)-1-methyl-1,4-dihydro-2H-pyrido[4,3-d][1,3]oxazine] — higher, 220 to 221 °C
- Nc1cc(N2CCc3ccccc3C2)ccn1 [Example 30, 4-(3,4-Dihydro-1H-isoquinolin-2-yl)-pyridin-2-yl-amine] — not separable, 160 to 161 °C
- Clc1ccc2c(c1)CN(c1ccncc1)CC2 (as salt: hydrochloride) [Example 28, 7-Chloro-2-pyridin-4-yl-1,2,3,4-tetrahydro-isoquinoline] — lower, 100 to 101 °C
- Cc1cc(N2CCc3ccccc3C2)ccn1 (as salt: fumarate) [Example 31, 2-(2-Methyl-pyridin-4-yl)-1,2,3,4-tetrahydro-isoquinoline] — lower, 155 to 156 °C
- NCc1cccc(N2CCc3ccccc3C2)n1 (as salt: hydrochloride) [Example 22, C-[6-(3,4-Dihydro-1H-isoquinolin-2-yl)-pyridin-2-yl]-methylamine] — higher, 192 to 195 °C
- Cc1cc(N2CCc3ccccc3C2)cc(NC(=O)CO)n1 [Example 34, N-[4-(3,4-Dihydro-1H-isoquinolin-2-yl)-6-methyl-pyridin-2-yl]-2-hydroxy-acetamide] — not separable, 160 to 162 °C
- Nc1cc(N2CCc3ccccc3C2)nc2c1CCCC2 (as salt: hydrochloride) [Example 7, 2-(3,4-Dihydro-1H-isoquinolin-2-yl)-5,6,7,8-tetrahydro-quinolin-4-yl-amine] — lower, 109 to 110 °C
- Clc1cccc2c1CCN(c1ccncc1)C2 (as salt: hydrochloride) [Example 25, 5-Chloro-2-pyridin-4-yl-1,2,3,4-tetrahydro-isoquinoline] — higher, 258 to 259 °C

In the case of `Clc1ccc2c(c1)CCN(c1ccncc1)C2` (as salt: hydrochloride) [Example 27, 6-Chloro-2-pyridin-4-yl-1,2,3,4-tetrahydro-isoquinoline], the melting point is reported as > 250 °C.
With `Cc1cc(N2CCc3ccccc3C2)cc(N)n1` (as salt: fumarate) [Example 32, 4-(3,4-Dihydro-1H-isoquinolin-2-yl)-6-methyl-pyridin-2-yl-amine] the melting point was > 270 °C.
For `CCOC(=O)C(=O)Nc1cc(N2CCc3ccccc3C2)cc(C)n1` (as salt: hydrochloride) [Example 33, N-[4-(3,4-Dihydro-1H-isoquinolin-2-yl)-6-methyl-pyridin-2-yl]-oxalamic acid ethyl ester], the melting point was > 160 °C (dec.).
